# Results taken from publication PMC11645656, “MRGPRX4 mediates phospho-drug associated pruritus in a humanized mouse model” (Science translational medicine, 2024).
# Several values for one entry are separate records, joined by “and”; a condition that tells them apart may be missing. Identical values can stand only once. Like-named read-outs stand apart in the source and are kept apart here.
# Experiments:
# Type in all cases: cell-based
# mock [1] = experiment: Calcium mobilization assay (FLIPR), mock-transfected control cells (Fig. 3E and 3F)
# MRGPRX4 S83L (L83) = MRGPRX4 S83L (L83) (Homo sapiens, UniProt Q96LA9); experiment: Calcium mobilization assay (FLIPR), S83L MRGPRX4 transiently expressed in HEK293T cells; parameters: expressed in transfected cells; host or cells: HEK293T, transient; conditions: for Calcium mobilization response (Fig. 4D dose-response): each cell one replicate; for EC50: Fig. 4E, unit not in the head, taken from Concentration (M) of the sheet and pEC50 [M] of Fig. 4E
# Sequence of MRGPRX4 S83L (L83) (Q96LA9 whole entry, stated change not applied): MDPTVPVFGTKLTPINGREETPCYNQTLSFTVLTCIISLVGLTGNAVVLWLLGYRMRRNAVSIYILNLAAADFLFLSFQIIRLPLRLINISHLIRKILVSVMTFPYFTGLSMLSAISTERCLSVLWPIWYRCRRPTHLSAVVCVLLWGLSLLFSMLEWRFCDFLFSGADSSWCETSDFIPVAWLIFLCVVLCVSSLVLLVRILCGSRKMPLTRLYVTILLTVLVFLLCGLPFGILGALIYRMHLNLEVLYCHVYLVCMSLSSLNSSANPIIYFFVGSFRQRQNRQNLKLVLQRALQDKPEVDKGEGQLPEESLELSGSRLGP
# From the text: Fig. 4. […] Hydrogen bond is shown as cyan dashed lines. […] Data are from three independent experiments, performed in triplicate. (E) pEC50 plots of various agonists toward S83- and L83-MRGPRX4 through calcium mobilization assay. […] Each data point represents an independent experiment, performed in triplicate. The extra sum-of-square F test was used to examine the difference in EC50 values. One-sided t-test was used for nateglinide. *p< 0.05, **p< 0.01 and ***p< 0.001. ns = no statistical significance. Both (D) and (E) are reported as the mean ± SEM. N.D.= no detectable response ≤ 100 μM.
# HEK293 cells and MRGPRX4 stably expressed HEK293 cells were seeded in 100 μl culture media on 96-well plates at a density of 40,000 cells per well and incubated overnight. The next day, the media were replaced with a dye-loading solution from the FLIPR Calcium 5 assay kit (Molecular Devices), diluted in Hank's Balanced Salt Solution (HBSS) with 20 mM HEPES, pH 7.4. After 1 h of incubation at 37°C, cells were allowed to recover for 10 min in the dark at room temperature prior to performing intracellular calcium mobilization assay in a Flexstation-3 instrument with SoftMax®Pro 7.1 software (Molecular Devices). Serial concentrations of tested drugs were prepared in HBSS/HEPES solution at 3X concentration. […] Compounds were tested in triplicates and the signals were averaged. Responses were determined by subtracting the minimum signal (at the baseline before adding the drug) from the maximum signal (obtained after drug stimulation). Four-parameter logistic (4PL) curve fit was used to plot the dose-response curves. […] Both dose-response curve fitting and EC50s calculation are computed with GraphPad Prism software (version: 6.o or above).
# To generate murine Mrgprs expressing cells, HEK293T cells (ATCC) were seeded on poly-D-lysine coated 96 well plate at 25,000 cells per well one day prior to transfection. HEK293T cells were transiently co-transfected with the mammalian expression plasmids carrying cDNA encoding the murine Mrgpr genes and plasmid inserted with cDNA encoding murine α-subunit of the heterotrimeric G15 protein (Gα15) in triplicates using Lipofectamine LTX reagents (Thermo Scientific). To generate WT, S83L, and alanine mutant MRGPRX4-expressing cells, HEK293T cells were seeded on poly-D-lysine coated 384 well plate at 12,000 cells per well one day prior to transfection. Mammalian expression plasmids pLX304 (vector from Addgene) carrying different MRGPRX4 coding sequences were transiently transfected into HEK293T cells in triplicates with Lipofectamine LTX reagents (Thermo Scientific). Intracellular calcium mobilization assays were performed after one day of transfection. Murine Mrgprs tested include Mrgpra1, Mrgpra2a, Mrgpra2b, Mrgpra3, Mrgpra4, Mrgpra6, Mrgpra9, Mrgpra10, Mrgpra11, Mrgpra12, Mrgpra14, Mrgprb5, Mrgprb6, Mrgprb10, Mrgprb11, and Mrgprc11. WT and mutant MRGPRX4 constructs tested include WT, S83L, R82A, R86A, R95A, W158A, Y250A, and Y254A.
# mock [2] = experiment: Calcium mobilization assay (FLIPR), mock-transfected cells (Fig. 3E and 3F)
structure (smiles),measurement,setting,value
O=C1NC(c2ccccc2)(c2ccccc2)C(=O)N1COP(=O)(O)O [Fosphenytoin],"Calcium mobilization response, dose-response replicate data (Fig. 3E and 3F)",mock [1]; concentration 188 pM,2.751 and 6.052 and -2.532
same,"Calcium mobilization response, dose-response replicate data (Fig. 3E and 3F)",mock [1]; concentration 565 pM,4.071 and -5.503 and 12.3245
same,"Calcium mobilization response, dose-response replicate data (Fig. 3E and 3F)",mock [1]; concentration 1.69e-9 M,4.071 and 3.081 and -1.212
same,"Calcium mobilization response, dose-response replicate data (Fig. 3E and 3F)",mock [1]; concentration 5.08e-9 M,3.411 and -2.202
same,"Calcium mobilization response, dose-response replicate data (Fig. 3E and 3F)",mock [1]; concentration 1.52e-8 M,-1.542 and -1.212 and -3.853
same,"Calcium mobilization response, dose-response replicate data (Fig. 3E and 3F)",mock [1]; concentration 4.57e-8 M,-2.532 and -6.494 and 5.722
same,"Calcium mobilization response, dose-response replicate data (Fig. 3E and 3F)",mock [1]; concentration 1.37e-7 M,-8.474 and 2.091 and 3.411
same,"Calcium mobilization response, dose-response replicate data (Fig. 3E and 3F)",mock [1]; concentration 4.12e-7 M,-2.202 and -3.522 and -0.2212
same,"Calcium mobilization response, dose-response replicate data (Fig. 3E and 3F)",mock [1]; concentration 1.23e-6 M,-8.474 and -1.212 and -3.1923
same,"Calcium mobilization response, dose-response replicate data (Fig. 3E and 3F)",mock [1]; concentration 3.7e-6 M,-6.824 and 3.081 and 0.4401
same,"Calcium mobilization response, dose-response replicate data (Fig. 3E and 3F)",mock [1]; concentration 1.11e-5 M,-13.7563 and -1.212 and 1.1003
same,"Calcium mobilization response, dose-response replicate data (Fig. 3E and 3F)",mock [1]; concentration 3.33e-5 M,-14.4165 and -16.3972 and -5.173
same,"Calcium mobilization response, dose-response replicate data (Fig. 3E and 3F)",mock [1]; concentration 0.0001 M,-29.6022 and -24.6503 and -24.9805
same,Calcium mobilization response (Fig. 4D dose-response),MRGPRX4 S83L (L83); 5.08e-8 M,12.9092
same,Calcium mobilization response (Fig. 4D dose-response),MRGPRX4 S83L (L83); 1.52e-7 M,15.1222
same,Calcium mobilization response (Fig. 4D dose-response),MRGPRX4 S83L (L83); 4.57e-7 M,12.9092
same,EC50,MRGPRX4 S83L (L83); read-out: EC50s (each well represents individual experiment),1.09e-05 M and 5.99e-05 M and 1.97e-05 M
CC(C)c1cccc(C(C)C)c1OCOP(=O)(O)O [Fospropofol],calcium mobilization response (Fig. 3E and 3F dose-response),mock [2]; 5.08e-9 M,10.7608 and 18.8313 and 12.7088
same,calcium mobilization response (Fig. 3E and 3F dose-response),mock [2]; 1.37e-7 M,17.7181 and 25.7886 and 28.015
same,calcium mobilization response (Fig. 3E and 3F dose-response),mock [2]; 4.12e-7 M,16.3266 and 13.822 and 21.6142
same,calcium mobilization response (Fig. 3E and 3F dose-response),mock [2]; 1.23e-6 M,32.4677 and 38.8684 and 39.425
same,calcium mobilization response (Fig. 3E and 3F dose-response),mock [2]; 3.7e-6 M,22.4491 and 40.2599 and 25.232
same,calcium mobilization response (Fig. 3E and 3F dose-response),mock [2]; 1.11e-5 M,30.7979 and 29.963 and 39.7033
same,calcium mobilization response (Fig. 3E and 3F dose-response),mock [2]; 3.33e-5 M,34.1374 and 32.1894 and 41.0947
same,calcium mobilization response (Fig. 3E and 3F dose-response),mock [2]; 0.0001 M,28.2933 and 31.0762 and 40.2599
same,Calcium mobilization response (Fig. 4D dose-response),MRGPRX4 S83L (L83); 1.52e-8 M,30.9484
same,Calcium mobilization response (Fig. 4D dose-response),MRGPRX4 S83L (L83); 0.0001 M,92.0965
same,EC50,MRGPRX4 S83L (L83); EC50s (each well represents individual experiment),1.79e-07 M and 1.3e-07 M and 1.88e-07 M
